# Test results from ChEMBL document CHEMBL3885881, “DrugMatrix”.
# Organism: Rattus norvegicus
# Assay: DrugMatrix - Regimen: Daily Repeat
# Type: toxicity, organism-based, Sprague-Dawley
# Design: regimen Daily Repeat, gender Male, age 6-8 weeks
# Details: in vivo, iv, vehicle 100 % SALINE; for ABSOLUTE BASOPHIL / ABSOLUTE EOSINOPHIL / ABSOLUTE LYMPHOCYTE / ABSOLUTE MONOCYTE / ABSOLUTE SEGMENTED NEUTROPHIL / BASOPHIL / EOSINOPHIL / ERYTHROCYTE COUNT / HEMATOCRIT / HEMOGLOBIN / LEUKOCYTE COUNT / LYMPHOCYTE / MEAN CORPUSCULAR HEMOGLOBIN / MEAN CORPUSCULAR HEMOGLOBIN CONCENTRATION / MEAN CORPUSCULAR VOLUME / MONOCYTE / NEUTROPHIL / NUCLEATED RED BLOOD CELLS / PLATELET COUNT: tissue Blood; for ALANINE AMINOTRANSFERASE / ALBUMIN / ALKALINE PHOSPHATASE / ASPARTATE AMINOTRANSFERASE / BLOOD UREA NITROGEN / CARBON DIOXIDE / CHLORIDE / CHOLESTEROL / CREATINE PHOSPHOKINASE / CREATININE / GLUCOSE / LACTATE DEHYDROGENASE / LIPASE / PHOSPHORUS / POTASSIUM / SODIUM / TOTAL BILIRUBIN / TOTAL PROTEIN / URIC ACID: tissue Plasma
# [1] = 0 mg/kg, 72 h, dose level Control, time 3 day
# [2] = 0 mg/kg, 120 h, dose level Control, time 5 day
# [3] = 20 mg/kg, 72 h, dose level Low, time 3 day
# [4] = 20 mg/kg, 120 h, dose level Low, time 5 day
compound,measurement,setting,value
CN(N=O)C(=O)N[C@@H](C=O)[C@@H](O)[C@H](O)[C@H](O)CO [STREPTOZOCIN],ABSOLUTE BASOPHIL,[1],0 CELLS/uL
same,ABSOLUTE EOSINOPHIL,[1],247.67 CELLS/uL
same,ABSOLUTE LYMPHOCYTE,[1],13190.83 CELLS/uL
same,ABSOLUTE MONOCYTE,[1],307.67 CELLS/uL
same,ABSOLUTE SEGMENTED NEUTROPHIL,[1],1220.5 CELLS/uL
same,BASOPHIL,[1],0%
same,EOSINOPHIL,[1],1.67%
same,ERYTHROCYTE COUNT,[1],5.47 x10E6/uL
same,HEMATOCRIT,[1],33.98%
same,HEMOGLOBIN,[1],12.65 G/DL
same,LEUKOCYTE COUNT,[1],14.97 x10E3/uL
same,LYMPHOCYTE,[1],88.17%
same,MEAN CORPUSCULAR HEMOGLOBIN,[1],23.17 pg
same,MEAN CORPUSCULAR HEMOGLOBIN CONCENTRATION,[1],37.23 G/DL
same,MEAN CORPUSCULAR VOLUME,[1],62.25 fL
same,MONOCYTE,[1],2%
same,NEUTROPHIL,[1],8.17%
same,NUCLEATED RED BLOOD CELLS,[1],0 /100WBC
same,PLATELET COUNT,[1],1307.17 x10E3/uL
same,ALANINE AMINOTRANSFERASE,[1],39.67 u/L
same,ALBUMIN,[1],4.08 G/DL
same,ALKALINE PHOSPHATASE,[1],383.17 u/L
same,ASPARTATE AMINOTRANSFERASE,[1],88.83 u/L
same,BLOOD UREA NITROGEN,[1],18.5 mg/dL
same,CARBON DIOXIDE,[1],27.5 mmol/L
same,CHLORIDE,[1],103 MEQ/L
same,CHOLESTEROL,[1],67.33 mg/dL
same,CREATINE PHOSPHOKINASE,[1],414.67 u/L
same,CREATININE,[1],0.19 mg/dL
same,GLUCOSE,[1],149.33 mg/dL
same,LACTATE DEHYDROGENASE,[1],536.83 u/L
same,LIPASE,[1],8.83 u/L
same,PHOSPHORUS,[1],11.13 mg/dL
same,POTASSIUM,[1],6.23 MEQ/L
same,SODIUM,[1],144.42 MEQ/L
same,TOTAL BILIRUBIN,[1],0.18 mg/dL
same,TOTAL PROTEIN,[1],5.57 G/DL
same,URIC ACID,[1],1.23 mg/dL
same,ABSOLUTE BASOPHIL,[2],0 CELLS/uL
same,ABSOLUTE EOSINOPHIL,[2],158.83 CELLS/uL
same,ABSOLUTE LYMPHOCYTE,[2],13517.17 CELLS/uL
same,ABSOLUTE MONOCYTE,[2],352.67 CELLS/uL
same,ABSOLUTE SEGMENTED NEUTROPHIL,[2],1104.67 CELLS/uL
same,BASOPHIL,[2],0%
same,EOSINOPHIL,[2],1%
same,ERYTHROCYTE COUNT,[2],5.73 x10E6/uL
same,HEMATOCRIT,[2],36.85%
same,HEMOGLOBIN,[2],13.67 G/DL
same,LEUKOCYTE COUNT,[2],15.13 x10E3/uL
same,LYMPHOCYTE,[2],89.5%
same,MEAN CORPUSCULAR HEMOGLOBIN,[2],23.87 pg
same,MEAN CORPUSCULAR HEMOGLOBIN CONCENTRATION,[2],37.1 G/DL
same,MEAN CORPUSCULAR VOLUME,[2],64.33 fL
same,MONOCYTE,[2],2.33%
same,NEUTROPHIL,[2],7.17%
same,NUCLEATED RED BLOOD CELLS,[2],0.17 /100WBC
same,PLATELET COUNT,[2],1266 x10E3/uL
same,ALANINE AMINOTRANSFERASE,[2],49.17 u/L
same,ALBUMIN,[2],4.22 G/DL
same,ALKALINE PHOSPHATASE,[2],352.67 u/L
same,ASPARTATE AMINOTRANSFERASE,[2],95.17 u/L
same,BLOOD UREA NITROGEN,[2],18.83 mg/dL
same,CARBON DIOXIDE,[2],25.67 mmol/L
same,CHLORIDE,[2],102.67 MEQ/L
same,CHOLESTEROL,[2],66.83 mg/dL
same,CREATINE PHOSPHOKINASE,[2],550.33 u/L
same,CREATININE,[2],0.23 mg/dL
same,GLUCOSE,[2],186.17 mg/dL
same,LACTATE DEHYDROGENASE,[2],471.33 u/L
same,LIPASE,[2],8.67 u/L
same,PHOSPHORUS,[2],12.3 mg/dL
same,POTASSIUM,[2],6.35 MEQ/L
same,SODIUM,[2],143.57 MEQ/L
same,TOTAL BILIRUBIN,[2],0.18 mg/dL
same,TOTAL PROTEIN,[2],6.05 G/DL
same,URIC ACID,[2],2 mg/dL
same,ABSOLUTE BASOPHIL,[3],0 CELLS/uL
same,ABSOLUTE EOSINOPHIL,[3],193 CELLS/uL
same,ABSOLUTE LYMPHOCYTE,[3],10866.33 CELLS/uL
same,ABSOLUTE MONOCYTE,[3],207.67 CELLS/uL
same,ABSOLUTE SEGMENTED NEUTROPHIL,[3],899.67 CELLS/uL
same,BASOPHIL,[3],0%
same,EOSINOPHIL,[3],1.67%
same,ERYTHROCYTE COUNT,[3],5.49 x10E6/uL
same,HEMATOCRIT,[3],33.93%
same,HEMOGLOBIN,[3],12.73 G/DL
same,LEUKOCYTE COUNT,[3],12.17 x10E3/uL
same,LYMPHOCYTE,[3],89.33%
same,MEAN CORPUSCULAR HEMOGLOBIN,[3],23.23 pg
same,MEAN CORPUSCULAR HEMOGLOBIN CONCENTRATION,[3],37.5 G/DL
same,MEAN CORPUSCULAR VOLUME,[3],61.77 fL
same,MONOCYTE,[3],1.67%
same,NEUTROPHIL,[3],7.33%
same,NUCLEATED RED BLOOD CELLS,[3],0.33 /100WBC
same,PLATELET COUNT,[3],1240.67 x10E3/uL
same,ALANINE AMINOTRANSFERASE,[3],42 u/L
same,ALBUMIN,[3],4.1 G/DL
same,ALKALINE PHOSPHATASE,[3],304.33 u/L
same,ASPARTATE AMINOTRANSFERASE,[3],96.33 u/L
same,BLOOD UREA NITROGEN,[3],16 mg/dL
same,CARBON DIOXIDE,[3],25.33 mmol/L
same,CHLORIDE,[3],104 MEQ/L
same,CHOLESTEROL,[3],67 mg/dL
same,CREATINE PHOSPHOKINASE,[3],595 u/L
same,CREATININE,[3],0.25 mg/dL
same,GLUCOSE,[3],148.67 mg/dL
same,LACTATE DEHYDROGENASE,[3],798.67 u/L
same,LIPASE,[3],9.33 u/L
same,PHOSPHORUS,[3],11.97 mg/dL
same,POTASSIUM,[3],6.35 MEQ/L
same,SODIUM,[3],143.3 MEQ/L
same,TOTAL BILIRUBIN,[3],0.17 mg/dL
same,TOTAL PROTEIN,[3],5.4 G/DL
same,URIC ACID,[3],1.33 mg/dL
same,ABSOLUTE BASOPHIL,[4],0 CELLS/uL
same,ABSOLUTE EOSINOPHIL,[4],64 CELLS/uL
same,ABSOLUTE LYMPHOCYTE,[4],13587.67 CELLS/uL
same,ABSOLUTE MONOCYTE,[4],429.67 CELLS/uL
same,ABSOLUTE SEGMENTED NEUTROPHIL,[4],1452 CELLS/uL
same,BASOPHIL,[4],0%
same,EOSINOPHIL,[4],0.33%
same,ERYTHROCYTE COUNT,[4],5.57 x10E6/uL
same,HEMATOCRIT,[4],35.7%
same,HEMOGLOBIN,[4],13.4 G/DL
same,LEUKOCYTE COUNT,[4],15.53 x10E3/uL
same,LYMPHOCYTE,[4],87.33%
same,MEAN CORPUSCULAR HEMOGLOBIN,[4],24.07 pg
same,MEAN CORPUSCULAR HEMOGLOBIN CONCENTRATION,[4],37.53 G/DL
same,MEAN CORPUSCULAR VOLUME,[4],64.17 fL
same,MONOCYTE,[4],2.67%
same,NEUTROPHIL,[4],9.67%
same,NUCLEATED RED BLOOD CELLS,[4],0 /100WBC
same,PLATELET COUNT,[4],1260.33 x10E3/uL
same,ALANINE AMINOTRANSFERASE,[4],54.33 u/L
same,ALBUMIN,[4],4 G/DL
same,ALKALINE PHOSPHATASE,[4],308.67 u/L
same,ASPARTATE AMINOTRANSFERASE,[4],82.33 u/L
same,BLOOD UREA NITROGEN,[4],21 mg/dL
same,CARBON DIOXIDE,[4],26.33 mmol/L
same,CHLORIDE,[4],103.67 MEQ/L
same,CHOLESTEROL,[4],70.33 mg/dL
same,CREATINE PHOSPHOKINASE,[4],420.67 u/L
same,CREATININE,[4],0.21 mg/dL
same,GLUCOSE,[4],181.67 mg/dL
same,LACTATE DEHYDROGENASE,[4],60.33 u/L
same,LIPASE,[4],7.67 u/L
same,PHOSPHORUS,[4],12.23 mg/dL
same,POTASSIUM,[4],6.34 MEQ/L
same,SODIUM,[4],146.17 MEQ/L
same,TOTAL BILIRUBIN,[4],0.17 mg/dL
same,TOTAL PROTEIN,[4],6.03 G/DL
same,URIC ACID,[4],1.87 mg/dL
